Reference: patent US7309698B2, “Compositions for delivering bisphosphonates” (Emisphere Technologies, Inc., priority 2001, dated 2007)
Where “and” joins values, the source holds several entries; their conditions need not be identical. Equal entries are not always repeated.

Tests used:
[1] = Solubility of delivery agent compound; format: physicochemical; settings: 350 µl 2N NaOH + 650 µl water, aqueous buffer, thermodynamic from solid; 200 mg+350 μl 2N NaOH+650 μl H2O, pH=7.67
Method: The reaction mixture was warmed to 25° C. and stirred for 64 hours. The volatiles were removed in vacuo. The residue was stirred in 2N aqueous sodium hydroxide for one hour and acidified with 2M aqueous sulfuric acid. The solid was recrystallized twice from ethanol/water to give a tan solid. Isolation by filtration afforded 53.05 g of (52% yield) of 2-(4-(N-salicyloyl) aminophenyl) propionic acid. Solubility: 200 mg/mL (200 mg+350 μl 2N NaOH+650 μl H2O, pH=7.67). Anal. Calculated: C=67.36, H=5.3, N=4.91. Found: C=67.05, H=5.25, N=4.72.
A solution of 53.05 g (0.186 mol) of 2-(4-(N-salicyloyl)aminophenyl) propionic acid and 300 mL of ethanol was treated with 7.59 g (0.190 mol) of NaOH dissolved in 22 mL of water. The reaction mixture was stirred for 30 minutes at 25° C. and for 30 minutes at 0° C. The resulting pale yellow solid was isolated by filtration to give 52.61 g of sodium 2-(4-(N-salicyloyl) aminophenyl) propionate. Solubility: 200 mg/mL clear solution, pH=6.85. Anal. Calculated: C=60.45, H=5.45, N=3.92, Na=6.43. Found: C=60.84, H=5.87, N=3.85, Na=6.43. Melting point 236-238° C.

Row | melting point | solubility [1] | Compound
1 | 236 to 238 °C |  | CC(C(=O)[O-])c1ccc(NC(=O)c2ccccc2O)cc1.[Na+] (stereo not drawn) [Compound 4 Sodium Salt, Sodium 2-(4-(N-salicyloyl)aminophenyl)propionate]
2 |  | 200 mg/mL | CC(C(=O)O)c1ccc(NC(=O)c2ccccc2O)cc1 (stereo not drawn) [Compound 4, 2-(4-(N-salicyloyl)aminophenyl)propionic acid]
3 | 65 to 68 °C and 60 to 64 °C |  | O=C(O)CCCCCCCOc1ccccc1O [Compound 7, 8-(2-Hydroxyphenoxy)octanoic acid]
